Paper PMC6321136, “Combined In Vitro Studies and in Silico Target Fishing for the Evaluation of the Biological Activities of Diphylleia cymosa and Podophyllum hexandrum” (Molecules, 2018)
Read-outs that look alike come from different tables or passages of the source.

Key:
[1] = DPPH radical scavenger activity
Method: The evaluation of the antioxidant activity using the 2,2-diphenyl-1-picrylhydrazyl radical (DPPH) was performed according to the method proposed by Mensor et al., with adaptations. The samples were dissolved in MeOH at concentrations ranging from 1.0 to 200 μg/mL. A portion of 250 μL of each sample was added to a 96-well microplate. MeOH and pyrogallol (50 µg/mL) were employed as negative and positive controls, respectively. Then, 100 μL of either MeOH (blank wells) or DPPH solution (120 μg/mL, reaction wells) was added to the microplate. The reading was performed on a microplate reader (EL808IU-Biotek model, Biotek, Winooski, VT, USA), at 5 min intervals for a total of 45 min, at 515 nm. The percentage of radical scavenging activity (%RSA) was calculated using the following equation: % RSA = ((AC − AS)/AC) × 100, where AC is the absorbance of control and AS is the absorbance of samples taken at 35 min. The results were expressed in EC50 (effective concentration for 50% capture of the radicals) determined by non-linear regression using GraphPad Prism, version 6.0.

Anticancer, Yes1 kinase = test system: Anticancer, Yes1 kinase; set-up: method as in PubChem Bioassay AID 686947; settings: ref PubChem Bioassay AID 686947; cited from earlier work
[2] = test system: ADMET, Cytochrome P450 3A4; set-up: method as in PubChem Bioassay AID 885; settings: ref PubChem Bioassay AID 885; cited from earlier work
[3] = test system: Agonist, glucocorticoid receptor (GR); set-up: method as in PubChem Bioassay AID 720691; settings: ref PubChem Bioassay AID 720691; cited from earlier work
[4] = test system: ADMET, Cytochrome P450 3A4; set-up: method as in PubChem Bioassay AID 884; settings: ref PubChem Bioassay AID 884; cited from earlier work
[5] = test system: Antagonist, androgen receptor (AR); set-up: method as in PubChem Bioassay AID 743063; settings: ref PubChem Bioassay AID 743063; cited from earlier work
[6] = test system: Cytotoxicity, Agonist, p53; set-up: method as in PubChem Bioassay AID 651633; settings: ref PubChem Bioassay AID 651633; cited from earlier work
AP1 Signaling Pathway = test system: AP1 Signaling Pathway; set-up: method as in PubChem Bioassay AID 357; settings: ref PubChem Bioassay AID 357; cited from earlier work
Anti-Inflammatory model [7] = test system: Anti-Inflammatory model; set-up: method as in PubChem Bioassay AID 1309; settings: ref PubChem Bioassay AID 1309; cited from earlier work
Anticancer, Leukemia [8] = test system: Anticancer, Leukemia; set-up: method as in PubChem Bioassay AID 258; settings: ref PubChem Bioassay AID 258; cited from earlier work
Anticancer, Melanoma = test system: Anticancer, Melanoma; set-up: method as in PubChem Bioassay AID 192; settings: ref PubChem Bioassay AID 192; cited from earlier work
[9] = test system: Antagonist, vitamin D receptor (VDR); set-up: method as in PubChem Bioassay AID 743242; settings: ref PubChem Bioassay AID 743242; cited from earlier work
THP-1 cells = THP-1 cells at 10 µM; ref [69]; cited from earlier work
[10] = test system: Antagonist, thyroid receptor (TR); set-up: method as in PubChem Bioassay AID 743065; settings: ref PubChem Bioassay AID 743065; cited from earlier work
Angiogenesis model [11] = test system: Angiogenesis model; set-up: method as in PubChem Bioassay AID 575; settings: ref PubChem Bioassay AID 575; cited from earlier work
Anti-Inflammatory model [12] = test system: Anti-Inflammatory model; set-up: method as in PubChem Bioassay AID 602277; settings: ref PubChem Bioassay AID 602277; cited from earlier work
[13] = test system: Cytotoxicity, Antagonist, androgen receptor (AR); set-up: method as in PubChem Bioassay AID 743033; settings: ref PubChem Bioassay AID 743033; cited from earlier work
[14] = test system: Antagonist, retinoid-related orphan receptor gamma (ROR-gamma); set-up: method as in PubChem Bioassay AID 1159521; settings: ref PubChem Bioassay AID 1159521; cited from earlier work
[15] = test system: Antagonist, peroxisome proliferator-activated receptor gamma (PPARg); set-up: method as in PubChem Bioassay AID 743191; settings: ref PubChem Bioassay AID 743191; cited from earlier work
Anticancer, Leukemia [16] = test system: Anticancer, Leukemia; set-up: method as in PubChem Bioassay AID 328; settings: ref PubChem Bioassay AID 328; cited from earlier work
Anticancer, Leukemia [17] = test system: Anticancer, Leukemia; set-up: method as in PubChem Bioassay AID 1053195; settings: ref PubChem Bioassay AID 1053195; cited from earlier work
[18] = test system: Antagonist, constitutive androstane receptor (CAR); set-up: method as in PubChem Bioassay AID 1224838; settings: ref PubChem Bioassay AID 1224838; cited from earlier work
[19] = test system: Anticancer, non-Hodgkin lymphoma; set-up: method as in PubChem Bioassay AID 651568; settings: ref PubChem Bioassay AID 651568; cited from earlier work
[20] = test system: Agonist, thyroid receptor (TR); set-up: method as in PubChem Bioassay AID 743066; settings: ref PubChem Bioassay AID 743066; cited from earlier work
Angiogenesis model [21] = test system: Angiogenesis model; set-up: method as in PubChem Bioassay AID 1117340; settings: ref PubChem Bioassay AID 1117340; cited from earlier work
[22] = test system: Antagonist, peroxisome proliferator-activated receptor delta (PPARd); set-up: method as in PubChem Bioassay AID 743215; settings: ref PubChem Bioassay AID 743215; cited from earlier work

Compound: COc1cc([C@@H]2c3cc4c(cc3[C@H](O)[C@H]3COC(=O)[C@H]23)OCO4)cc(OC)c1OC [Podophyllotoxin, podophyllotoxin]
- Antioxidant Activity (IC50-µg/mL) DPPH Radical Sequestration [1]: >200 mg/L
- Exper. Activity (Anticancer, Yes1 kinase): Inactive
- Exper. Activity [2]: Inactive
- Exper. Activity [3]: Inactive
- Exper. Activity [4]: Active
- Exper. Activity [5]: Active
- Exper. Activity [6]: Inactive
- Exper. Activity (AP1 Signaling Pathway): Inactive
- Exper. Activity (Anti-Inflammatory model [7]): Active
- Exper. Activity (Anticancer, Leukemia [8]): Inactive
- Exper. Activity (Anticancer, Melanoma): Inactive
- Exper. Activity [9]: Active
- cytotoxicity (THP-1 cells): no cytotoxicity was observed
- Exper. Activity [10]: Active
- Exper. Activity (Angiogenesis model [11]): Inactive
- Exper. Activity (Anti-Inflammatory model [12]): Active
- Exper. Activity [13]: Inactive
- Exper. Activity [14]: Active
- Exper. Activity [15]: Inactive
- Exper. Activity (Anticancer, Leukemia [16]): Active
- Exper. Activity (Anticancer, Leukemia [17]): Inactive
- Exper. Activity [18]: Active
- Exper. Activity [19]: Inactive
- Exper. Activity [20]: Inactive
- Exper. Activity (Angiogenesis model [21]): Active
- Exper. Activity [22]: Inactive
